In ChEMBL document CHEMBL6182830, “Hepatocyte targeting via the asialoglycoprotein receptor” (RSC Med Chem, 2025):

Assay: Binding affinity to human ASGR assessed as dissociation constant by SPR analysis

Compound	Kd [µM]
CC(=O)N[C@@H]1[C@@H](O)[C@@H](O)[C@@H](CO)O[C@H]1O	40.4
CO[C@@H]1O[C@H](CO)[C@H](O)[C@H](O)[C@H]1O	880
O=C(N[C@H]1[C@H]2OC[C@](CO)(O2)[C@H](O)[C@@H]1O)C(F)(F)F	1.8
CC(=O)N[C@H]1[C@H]2OC[C@](CO)(O2)[C@H](O)[C@@H]1O	7.2
C[C@@H]1O[C@H](CO)[C@H](O)[C@H](O)[C@H]1NC(=O)C(F)(F)F	14.8
CC(=O)N[C@@H]1[C@@H](O)[C@@H](O)[C@@H](CO)O[C@H]1C	41
COc1cccc(-n2cc(C[C@H]3O[C@H](OCC(O)CNCc4ccccc4)[C@H](NC(=O)C(F)(F)F)[C@@H](O)[C@H]3O)nn2)c1 (stereo partly drawn)	1.2
C=CCO[C@H]1O[C@H](CN=[N+]=[N-])[C@H](O)[C@H](O)[C@H]1NC(C)=O	1.6
